Assay results published in patent US8648085B2, “1, 5-dihydro-pyrazolo (3, 4-D) pyrimidin-4-one derivatives and their use as PDE9A mudulators for the treatment of CNS disorders” (Boehringer Ingelheim International GmbH, priority 2007, dated 2014).

Tests used:
PDE9A [1] = molecular target: T1, PDE9A (Homo sapiens, UniProt O76083); assay: PDE enzymatic activity assay (SPA), PDE9A; format: biochemical; set-up: made in house; host or cells: SF9 insect cells (crude lysate used as enzyme source); settings: cGMP substrate, for illustrative purposes; for inhibition at 10 µM: 10 micromolar; for IC50: given as ranges
T1 sequence (O76083 whole entry): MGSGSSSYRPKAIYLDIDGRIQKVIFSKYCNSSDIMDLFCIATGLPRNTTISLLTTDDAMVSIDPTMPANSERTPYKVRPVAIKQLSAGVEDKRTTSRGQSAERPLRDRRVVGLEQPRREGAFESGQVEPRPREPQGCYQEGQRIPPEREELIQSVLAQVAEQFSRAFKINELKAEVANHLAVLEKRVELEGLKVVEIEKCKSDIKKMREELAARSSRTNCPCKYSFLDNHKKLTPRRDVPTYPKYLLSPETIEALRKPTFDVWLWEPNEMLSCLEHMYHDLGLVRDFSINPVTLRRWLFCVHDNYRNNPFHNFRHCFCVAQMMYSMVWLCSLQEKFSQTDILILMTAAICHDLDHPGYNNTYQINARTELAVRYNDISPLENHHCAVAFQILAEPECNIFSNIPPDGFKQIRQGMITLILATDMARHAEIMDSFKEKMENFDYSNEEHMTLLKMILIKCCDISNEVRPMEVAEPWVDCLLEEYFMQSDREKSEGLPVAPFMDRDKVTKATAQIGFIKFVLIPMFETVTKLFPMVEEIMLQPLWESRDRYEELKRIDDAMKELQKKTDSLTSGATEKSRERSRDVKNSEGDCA
Description: (§1) The PDE enzymatic activity assays were run as SPA, in general according to the protocol of the manufacturer (Amersham Biosciences, product number: TRKQ 7100). As enzyme source, lysate (PBS with 1% Triton X-100 supplemented with protease inhibitors, cell debris removed by centrifugation at 13.000 rpm for 30 min) of SF 9 cell expressing the human PDE of interest was used. The total protein amount included in the assay varied upon infection and production efficacy of the SF9 cells and lay in the range of […].
(§2) In general, the assay conditions were as follows: • total assay volume: 40 μl • protein amount: 0.1-50 ng • substrate concentration (cGMP or cAMP): 20 nM; ˜1 mCi/l • incubation time: 60 min at room temperature • final DMSO concentration: 1%
(§3) The assays were run in 384-well format. The test reagents as well as the enzyme and the substrate were diluted in assay buffer. The assay buffer contained 50 mM Tris, 8.3 mM MgCl2, 1.7 mM EGTA, 0.1% BSA, 0.05% Tween 20; the pH of assay buffer was adjusted to 7.5. In case activity of PDE1C was analysed, 50 nM Calmodulin and 3 mM CaCl2 were included in the assay buffer. In case PDE9 activity was analyzed, the reaction was stopped by applying a PDE9 specific inhibitor (e.g. compounds according to WO2004/099210). PDE1C was analysed with cAMP as substrate, and PDE9 was analyzed with cGMP as substrate.
Calculation of % Inhibition:
The activity of the positive control (minus the negative control=background) is set to 100% and activity in the presence of test compound is expressed relative to these 100%.
Within this setting, an inhibition above 100% might be possible due to the nature of the variation of the positive control within the assay, however, in this case the reported % inhibition had been adjusted to 100%.
(§4) IC50 can be calculated in a conventional way, eventually with the help of GraphPadPrism or other suited software setting the positive control as 100 and the negative control as 0. For calculation of IC50 usually 8 dilutions of the test compound ([…]) are to be selected and tested following the aforementioned protocol.

PDE1C = molecular target: T2, PDE1C (Homo sapiens, UniProt Q14123); assay: PDE enzymatic activity assay (SPA), PDE1C, cAMP as substrate; format: biochemical; settings: ratio IC50 PDE1C / IC50 PDE9A; for illustrative purposes
T2 construct: made in house; host or cells: SF9 insect cells (crude lysate used as enzyme source)
Description: as §1, §2, §3, §4

PDE9A [2] = molecular target: T1, PDE9A; settings: concentrations of up to 100 [mu]M; cited from earlier work

O=c1[nH]c(Cc2ccccc2OC(F)(F)F)nc2c1cnn2-c1c(Cl)cccc1Cl [Example 25, 1-(2,6-Dichloro-phenyl)-6-(2-trifluoromethoxy-benzyl)-1,5-dihydro-pyrazolo[3,4-d]pyrimidin-4-one]
inhibition at 10 µM (PDE9A [1]): 58%
IC50 (PDE9A [1]): > 500 nM
Selectivity = IC50 PDE 1C/IC50 PDE9A (both nanomolar) (PDE1C): 24

O=c1[nH]c(Cc2ccccc2OC(F)(F)F)nc2c1cnn2-c1cccc(F)c1 [Example 26, 1-(3-Fluoro-phenyl)-6-(2-trifluoromethoxy-benzyl)-1,5-dihydro-pyrazolo[3,4-d]pyrimidin-4-one]
inhibition at 10 µM (PDE9A [1]): 51%
IC50 (PDE9A [1]): > 500 nM
Selectivity = IC50 PDE 1C/IC50 PDE9A (both nanomolar) (PDE1C): 24

CCOc1cc(Cl)c(-n2ncc3c(=O)[nH]c(Cc4ccccc4OC(F)(F)F)nc32)cc1C [Example 27, 1-(2-Chloro-4-ethoxy-5-methyl-phenyl)-6-(2-trifluoromethoxy-benzyl)-1,5-dihydro-pyrazolo [3,4-d]pyrimidin-4-one]
inhibition at 10 µM (PDE9A [1]): 67%
IC50 (PDE9A [1]): > 500 nM
Selectivity = IC50 PDE 1C/IC50 PDE9A (both nanomolar) (PDE1C): 14

Cc1c(F)cccc1-n1ncc2c(=O)[nH]c(Cc3ccccc3OC(F)(F)F)nc21 [Example 28, 1-(3-Fluoro-2-methyl-phenyl)-6-(2-trifluoromethoxy-benzyl)-1,5-dihydro-pyrazolo[3,4-d]pyrimidin-4-one]
inhibition at 10 µM (PDE9A [1]): 96%
IC50 (PDE9A [1]): 10 to 500 nM
Selectivity = IC50 PDE 1C/IC50 PDE9A (both nanomolar) (PDE1C): 8

O=c1[nH]c(Cc2ccccc2OC(F)(F)F)nc2c1cnn2-c1cccc(Cl)c1Cl [Example 29, 1-(2,3-Dichloro-phenyl)-6-(2-trifluoromethoxy-benzyl)-1,5-dihydro-pyrazolo[3,4-d]pyrimidin-4-one]
inhibition at 10 µM (PDE9A [1]): 89%
IC50 (PDE9A [1]): 10 to 500 nM
Selectivity = IC50 PDE 1C/IC50 PDE9A (both nanomolar) (PDE1C): 9

COc1c(F)cccc1-n1ncc2c(=O)[nH]c(Cc3ccccc3OC(F)(F)F)nc21 [Example 30, 1-(2-Methoxy,3-fluoro-phenyl)-6-(2-trifluoromethoxy-benzyl)-1,5-dihydro-pyrazolo[3,4-d]pyrimidin-4-one]
inhibition at 10 µM (PDE9A [1]): 95%
IC50 (PDE9A [1]): 10 to 500 nM
Selectivity = IC50 PDE 1C/IC50 PDE9A (both nanomolar) (PDE1C): 8

O=C(O)c1cccc(-n2ncc3c(=O)[nH]c(Cc4ccccc4OC(F)(F)F)nc32)c1 [Example 30-1, 1-(3-Carbox-phenyl)-6-(2-trifluoromethoxy-benzyl)-1,5-dihydro-pyrazolo[3,4-d]pyrimidin-4-one]
inhibition at 10 µM (PDE9A [1]): 101%
IC50 (PDE9A [1]): 10 to 500 nM
Selectivity = IC50 PDE 1C/IC50 PDE9A (both nanomolar) (PDE1C): 55

O=C(O)c1ccc(Cl)c(-n2ncc3c(=O)[nH]c(Cc4ccccc4OC(F)(F)F)nc32)c1 [Example 30-2, 1-(2-Chloro-5-carbox-phenyl)-6-(2-trifluoromethoxy-benzyl)-1,5-dihydro-pyrazolo[3,4-d]pyrimidin-4-one]
inhibition at 10 µM (PDE9A [1]): 100%
IC50 (PDE9A [1]): 10 to 500 nM
Selectivity = IC50 PDE 1C/IC50 PDE9A (both nanomolar) (PDE1C): 55

O=c1[nH]c(Cc2ccccc2OC(F)(F)F)nc2c1cnn2-c1cc(O)ccc1Cl [Example 30-3, 1-(2-Chloro-5-hydroxy-phenyl)-6-(2-trifluoromethoxy-benzyl)-1,5-dihydro-pyrazolo[3,4-d]pyrimidin-4-one]
inhibition at 10 µM (PDE9A [1]): 100%
IC50 (PDE9A [1]): 10 to 500 nM
Selectivity = IC50 PDE 1C/IC50 PDE9A (both nanomolar) (PDE1C): 14

O=c1[nH]c(Cc2ccccc2OC(F)(F)F)nc2c1cnn2-c1cccc(F)c1F [Example 30-4, 1-(2,3-Difluoro-phenyl)-6-(2-trifluoromethoxy-benzyl)-1,5-dihydro-pyrazolo[3,4-d]pyrimidin-4-one]
inhibition at 10 µM (PDE9A [1]): 99%
IC50 (PDE9A [1]): 10 to 500 nM
Selectivity = IC50 PDE 1C/IC50 PDE9A (both nanomolar) (PDE1C): 3

CC(=O)Nc1cccc(-n2ncc3c(=O)[nH]c(Cc4ccccc4OC(F)(F)F)nc32)c1 [Example 30-5, 1-(3-Acetamido-phenyl)-6-(2-trifluoromethoxy-benzyl)-1,5-dihydro-pyrazolo[3,4-d]pyrimidin-4-one]
inhibition at 10 µM (PDE9A [1]): 97%
IC50 (PDE9A [1]): 10 to 500 nM
Selectivity = IC50 PDE 1C/IC50 PDE9A (both nanomolar) (PDE1C): 26

O=c1[nH]c(Cc2ccccc2OC(F)(F)F)nc2c1cnn2-c1ccc(F)cc1O [Example 31, 1-(2-Hydroxy,4-fluoro-phenyl)-6-(2-trifluoromethoxy-benzyl)-1,5-dihydro-pyrazolo[3,4-d]pyrimidin-4-one]
inhibition at 10 µM (PDE9A [1]): 82%
IC50 (PDE9A [1]): > 500 nM
Selectivity = IC50 PDE 1C/IC50 PDE9A (both nanomolar) (PDE1C): 8

O=c1[nH]c(Cc2ccccc2OC(F)(F)F)nc2c1cnn2-c1cnccc1C(F)(F)F [Example 32, 6-(2-Trifluoromethoxy-benzyl)-1-(4-trifluoromethyl-pyridin-3-yl)-1,5-dihydro-pyrazolo[3,4-d]pyrimidin-4-one]
inhibition at 10 µM (PDE9A [1]): 91%
IC50 (PDE9A [1]): 10 to 500 nM
Selectivity = IC50 PDE 1C/IC50 PDE9A (both nanomolar) (PDE1C): 11

O=c1[nH]c(Cc2ccccc2OC(F)(F)F)nc2c1cnn2-c1cccnc1 [Example 33, 6-(2-Trifluoromethoxy-benzyl)-1-(pyridin-3-yl)-1,5-dihydro-pyrazolo[3,4-d]pyrimidin-4-one]
inhibition at 10 µM (PDE9A [1]): 89%
IC50 (PDE9A [1]): 10 to 500 nM
Selectivity = IC50 PDE 1C/IC50 PDE9A (both nanomolar) (PDE1C): 4

O=C(c1ccc(Cl)c(-n2ncc3c(=O)[nH]c(Cc4ccccc4OC(F)(F)F)nc32)c1)N1CCCCC1 [Example 35, 1-[2-Chloro-5-(piperidine-1-carbonyl)-phenyl]-6-(2-trifluoromethoxy-benzyl)-1,5-dihydro-pyrazolo[3,4-d]pyrimidin-4-one]
inhibition at 10 µM (PDE9A [1]): 93%
IC50 (PDE9A [1]): 10 to 500 nM
Selectivity = IC50 PDE 1C/IC50 PDE9A (both nanomolar) (PDE1C): 10

CN(C)C(=O)c1ccc(Cl)c(-n2ncc3c(=O)[nH]c(Cc4ccccc4OC(F)(F)F)nc32)c1 [Example 36, 1-[2-Chloro-5-(dimethylamino-carbonyl)-phenyl]-6-(2-trifluoromethoxy-benzyl)-1,5-dihydro-pyrazolo[3,4-d]pyrimidin-4-one]
inhibition at 10 µM (PDE9A [1]): 98%
IC50 (PDE9A [1]): 10 to 500 nM
Selectivity = IC50 PDE 1C/IC50 PDE9A (both nanomolar) (PDE1C): 54

O=C(c1ccc(Cl)c(-n2ncc3c(=O)[nH]c(Cc4ccccc4OC(F)(F)F)nc32)c1)N1CCOCC1 [Example 37, 1-[2-Chloro-5-(N-morpholino-carbonyl)-phenyl]-6-(2-trifluoromethoxy-benzyl)-1,5-dihydro-pyrazolo[3,4-d]pyrimidin-4-one]
inhibition at 10 µM (PDE9A [1]): 99%
IC50 (PDE9A [1]): 10 to 500 nM
Selectivity = IC50 PDE 1C/IC50 PDE9A (both nanomolar) (PDE1C): 27

O=C(c1cccc(-n2ncc3c(=O)[nH]c(Cc4ccccc4OC(F)(F)F)nc32)c1)N1CCOCC1 [Example 38, 1-[3-(N-morpholino-carbonyl)-phenyl]-6-(2-trifluoromethoxy-benzyl)-1,5-dihydro-pyrazolo[3,4-d]pyrimidin-4-one]
inhibition at 10 µM (PDE9A [1]): 92%
IC50 (PDE9A [1]): > 500 nM
Selectivity = IC50 PDE 1C/IC50 PDE9A (both nanomolar) (PDE1C): 9

O=c1[nH]c(Cc2ccccc2OC(F)(F)F)nc2c1cnn2-c1ncc(F)cc1F [Example 39, 6-(2-Trifluoromethoxy-benzyl)-1-(3,5-difluoro-pyridin-2-yl)-1,5-dihydro-pyrazolo[3,4-d]pyrimidin-4-one]
inhibition at 10 µM (PDE9A [1]): 97%
IC50 (PDE9A [1]): 10 to 500 nM
Selectivity = IC50 PDE 1C/IC50 PDE9A (both nanomolar) (PDE1C): 4

CC(=O)Nc1ccc(-c2c[nH]c(=O)cn2)cc1 [SKF94120]
inhibition on the isolated enzyme (human PDE9A) (PDE9A [2]): no inhibition

OCCN(CCO)c1nc(N2CCCCC2)c2nc(N(CCO)CCO)nc(N3CCCCC3)c2n1 [dipyridamole]
inhibition on the isolated enzyme (human PDE9A) (PDE9A [2]): no inhibition

COc1ccc(C2CNC(=O)C2)cc1OC1CCCC1 (stereo not shown) [rolipram]
inhibition on the isolated enzyme (human PDE9A) (PDE9A [2]): no inhibition

CCOC(=O)C1=C[C@]2(CC)CCCN3CCc4c(n1c1ccccc41)[C@@H]32 [vinpocetine]
inhibition on the isolated enzyme (human PDE9A) (PDE9A [2]): no inhibition
